Assay results: patent publication US20210221848A1, “POLYMYXIN DERIVATIVES AND THEIR USE IN COMBINATION THERAPY TOGETHER WITH DIFFERENT ANTIBIOTICS” (priority 2014, published 2021)
Read-outs that look alike come from different tables or passages of the source.

How the values were obtained:
[1] = tested on: A. baumanii strains with elevated MICs to Polymyxin B; assay: MIC against strains with elevated MICs to Polymyxin B; type: cell-based, Acinetobacter baumannii; details: Table 6D; for MIC A. baumannii 053: strain 053, elevated MIC to Polymyxin B; for MIC A. baumannii 056: strain 056, elevated MIC to Polymyxin B; for MIC A. baumannii 068: strain 068, elevated MIC to Polymyxin B; for MIC A. baumannii 070: strain 070, elevated MIC to Polymyxin B
Description: (§1) The inoculum was prepared by making a direct suspension of isolated colonies (selected from an 18-24 hour Mueller-Hinton agar plate) adjusted to the 0.5 McFarland standard. […] The assays were performed in duplicate. […] In cases where the duplicate values varied by less than 2-fold, the lower of the two values is reported. If a variation of greater than 2-fold was observed, the assay was considered non-valid. Several of the compounds were subjected to multiple tests, and where this is the case, the MIC reflects the modal value obtained.
(§2) The Further Synthesis Examples were tested against a range of Gram negative bacteria, and tested for HK-2 cell toxicity. All the worked examples, including the Synthesis and Further Synthesis Examples, were also tested against a range of Gram negative bacteria that are resistant to Polymyxin B (i.e. those strains where Polymyxin B has an elevated MIC value).

[2] = tested on: P. aeruginosa strains with elevated MICs to Polymyxin B; assay: MIC against strains with elevated MICs to Polymyxin B; type: cell-based, Pseudomonas aeruginosa; details: Table 6D; for MIC P. aeruginosa 065: strain 065, elevated MIC to Polymyxin B; for MIC P. aeruginosa 066: strain 066, elevated MIC to Polymyxin B; for MIC P. aeruginosa 067: strain 067, elevated MIC to Polymyxin B
Description: as §1, §2

[3] = tested on: K. pneumoniae strains with elevated MICs to Polymyxin B; assay: MIC against strains with elevated MICs to Polymyxin B; type: cell-based, Klebsiella pneumoniae; details: Table 6D; for MIC K. pneumoniae 062: strain 062, elevated MIC to Polymyxin B; for MIC K. pneumoniae 063: strain 063, elevated MIC to Polymyxin B; for MIC K. pneumoniae 064: strain 064, elevated MIC to Polymyxin B; for MIC K. pneumoniae 655: strain 655, elevated MIC to Polymyxin B
Description: as §1, §2

[4] = tested on: E. coli strains with elevated MICs to Polymyxin B; assay: as above; type: cell-based, Escherichia coli; details: Table 6D; for MIC E. coli 058: strain 058, elevated MIC to Polymyxin B; for MIC E. coli 059: strain 059, elevated MIC to Polymyxin B; for MIC E. coli 060: strain 060, elevated MIC to Polymyxin B; for MIC E. coli 061: strain 061, elevated MIC to Polymyxin B
Description: as §1, §2

[5] = absence of a second agent, Table 6B

| Substance | MIC A. baumannii 053 [1] | MIC A. baumannii 056 [1] | MIC A. baumannii 068 [1] | MIC A. baumannii 070 [1] | MIC, A. baumannii ATCC BAA-747 (A. baumannii; sole activity, Table 6C) | MIC, A. baumannii NCTC 13424 (A. baumannii; sole activity, Table 6C) | MIC, E. coli ATCC 25922 (E. coli; sole activity, Table 6C) | MIC P. aeruginosa 065 [2] | MIC P. aeruginosa 066 [2] | MIC P. aeruginosa 067 [2] | MIC, P. aeruginosa ATCC 27853 (P. aeruginosa; sole activity, Table 6C) | MIC, P. aeruginosa CCUG 59347 (P. aeruginosa; sole activity, Table 6C) | MIC K. pneumoniae 062 [3] | MIC K. pneumoniae 063 [3] | MIC K. pneumoniae 064 [3] | MIC K. pneumoniae 655 [3] | MIC E. coli 058 [4] | MIC E. coli 059 [4] | MIC E. coli 060 [4] | MIC E. coli 061 [4] | also measured |
| --- | --- | --- | --- | --- | --- | --- | --- | --- | --- | --- | --- | --- | --- | --- | --- | --- | --- | --- | --- | --- | --- |
| (S)-4-amino-2- ((2- trifluoromethyben- zyl)amino)butanoyl L-Thr-L-Dap- polymyxin B heptapeptide [Example D88] | >64 micrograms/mL | 32 micrograms/mL | 8 micrograms/mL | 16 micrograms/mL | 0.06 micrograms/mL | 0.06 micrograms/mL | 0.06 micrograms/mL | 0.25 micrograms/mL | 1 micrograms/mL | >64 micrograms/mL | 0.125 micrograms/mL | 0.5 micrograms/mL | 32 micrograms/mL | 16 micrograms/mL | 1 micrograms/mL | 16 micrograms/mL | 2 micrograms/mL | 8 micrograms/mL | 4 micrograms/mL | 16 micrograms/mL | MIC, K. pneumoniae ATCC 4352 (K. pneumoniae; sole activity, Table 6C): 0.06 micrograms/mL |
| (S)-4-amino-2- (((S)-6- methyloctyl)amino) butanoyl polymyxin B nonapeptide [Example D90] | 32 micrograms/mL | 8 micrograms/mL | 2 micrograms/mL | 2 micrograms/mL | 0.25 micrograms/mL | 0.25 micrograms/mL | 0.25 micrograms/mL | 0.25 micrograms/mL | 8 micrograms/mL | 32 micrograms/mL | 0.5 micrograms/mL | 0.25 micrograms/mL | 16 micrograms/mL | 32 micrograms/mL | 4 micrograms/mL | 16 micrograms/mL | 2 micrograms/mL | 2 micrograms/mL | 2 micrograms/mL | 8 micrograms/mL | MIC, K. pneumoniae ATCC 4352 (K. pneumoniae; sole activity, Table 6C): 0.25 micrograms/mL |
| (trans-5- octylpiperidine)-3- carbonyl polymyxin B nonapeptide [Example D23] | 2 micrograms/mL | 0.5 micrograms/mL | 1 micrograms/mL | 1 micrograms/mL |  |  |  | 0.5 micrograms/mL | 1 micrograms/mL | 8 micrograms/mL |  |  | 4 micrograms/mL | 4 micrograms/mL | 1 micrograms/mL | 4 micrograms/mL | 0.5 micrograms/mL | 0.25 micrograms/mL | 1 micrograms/mL | 1 micrograms/mL | MIC, A. baumannii ATCC BAA-747 (A. baumannii; [5]): 0.25 micrograms/mL; MIC, A. baumannii NCTC 13424 (A. baumannii; [5]): 0.25 micrograms/mL; MIC, K. pneumoniae ATCC BAA-2146 (K. pneumoniae; [5]): 1 micrograms/mL; MIC, E. coli NCTC 13441 (E. coli; [5]): 1 micrograms/mL; MIC, P. aeruginosa ATCC 27853 (P. aeruginosa; [5]): 0.5 micrograms/mL; MIC, P. aeruginosa CCUG 59347 (P. aeruginosa; [5]): 0.5 micrograms/mL |
| cis-5- (isobutylcarbamoyl) piperidine-3- carbonyl L-Thr-L- Dap-polymyxin B heptapeptide [Example D81] | 128 micrograms/mL | 32 micrograms/mL | 32 micrograms/mL | 32 micrograms/mL | 0.03 micrograms/mL | 0.06 micrograms/mL | 0.06 micrograms/mL | 2 micrograms/mL | 16 micrograms/mL | >128 micrograms/mL | 0.25 micrograms/mL | 0.5 micrograms/mL |  | 64 micrograms/mL | 16 micrograms/mL | 64 micrograms/mL | 8 micrograms/mL | 16 micrograms/mL | 8 micrograms/mL | 32 micrograms/mL | MIC, K. pneumoniae ATCC 4352 (K. pneumoniae; sole activity, Table 6C): 0.06 micrograms/mL; MIC, K. pneumoniae ATCC BAA-2146 (K. pneumoniae; sole activity, Table 6C): 0.06 micrograms/mL |
| (trans-5-(isobutyl- piperidine)-3- carbonyl L-Thr-L- Dap-polymyxin E heptapeptide [Example D77] | 64 micrograms/mL |  | 4 micrograms/mL | 4 micrograms/mL | 0.06 micrograms/mL | 0.06 micrograms/mL | 0.06 micrograms/mL | 4 micrograms/mL | 2 micrograms/mL | 128 micrograms/mL | 0.5 micrograms/mL | 1 micrograms/mL | 32 micrograms/mL | 16 micrograms/mL | 4 micrograms/mL | 16 micrograms/mL | 2 micrograms/mL | 4 micrograms/mL | 1 micrograms/mL | 4 micrograms/mL | MIC, K. pneumoniae ATCC 4352 (K. pneumoniae; sole activity, Table 6C): 0.125 micrograms/mL; MIC, K. pneumoniae ATCC BAA-2146 (K. pneumoniae; sole activity, Table 6C): 0.125 micrograms/mL; MIC, E. coli NCTC 13441 (E. coli; sole activity, Table 6C): 0.06 micrograms/mL |
| trans-4- octylpyrrolidine- 3-carbonyl L-Thr- L-Dap-polymyxin B heptapeptide [Example D89] | 8 micrograms/mL | 4 micrograms/mL | 0.5 micrograms/mL | 0.5 micrograms/mL | 0.5 micrograms/mL | 0.5 micrograms/mL | 0.5 micrograms/mL | 0.5 micrograms/mL | 1 micrograms/mL | 16 micrograms/mL | 0.5 micrograms/mL | 1 micrograms/mL | 8 micrograms/mL | 4 micrograms/mL | 1 micrograms/mL | 8 micrograms/mL | 1 micrograms/mL | 1 micrograms/mL | 0.5 micrograms/mL | 2 micrograms/mL | MIC, K. pneumoniae ATCC BAA-2146 (K. pneumoniae; sole activity, Table 6C): 0.5 micrograms/mL; MIC, E. coli NCTC 13441 (E. coli; sole activity, Table 6C): 0.125 micrograms/mL |
| (trans-5-(isobutyl- piperidine)-3- carbonyl L-Thr- D-Dap-polymyxin B heptapeptide [Example D87] | 32 micrograms/mL | 2 micrograms/mL | 2 micrograms/mL | 2 micrograms/mL | 0.03 micrograms/mL | 0.03 micrograms/mL | 0.03 micrograms/mL | 0.5 micrograms/mL | 0.25 micrograms/mL | 64 micrograms/mL | 0.25 micrograms/mL | 1 micrograms/mL | 8 micrograms/mL | 8 micrograms/mL | 0.5 micrograms/mL | 4 micrograms/mL | 1 micrograms/mL | 1 micrograms/mL | 1 micrograms/mL | 4 micrograms/mL | MIC, K. pneumoniae ATCC 4352 (K. pneumoniae; sole activity, Table 6C): 0.06 micrograms/mL |
